Assays:
[1] = tested on: patients with a diagnosis of iPD; experiment: Retrospective cross-sectional medical record analysis of 333 iPD patients: constipation; assay type: in vivo, human; conditions: for Constipation, % of patients / No Constipation, % of patients: by dopaminergic treatment
Excerpt: The inventors conducted a retrospective, cross-sectional medical record analysis of 333 consecutive patients with a diagnosis of iPD seen in the Movement Disorders clinic of Cedars-Sinai Medical Center from October 2010 to March 2014. Demographic and clinical data, including vitals, motor and non-motor symptoms, dopaminergic medications, comorbidities and anti-hypertensive medications were collected at the initial consultation visit. All data were collected in an Excel database and analyzed by SPSS version 19.0 (SPSS, Inc., Chicago, Ill.). Continuous variables were expressed as mean±standard deviation and compared by the use of Student t test (normally distributed) or as median±interquartile range value and compared by the use of Mann-Whitney U test (not normally distributed), as appropriate. Normality of data distribution was evaluated using the Kolmogorov-Smirnov test. Categorical variables were expressed as proportion and compared by use of χ^2 test with risk ratios and 95% confidence intervals quoted. To determine the independent predictors of constipation, logistic regression analysis was performed. Variables achieving p<0.1 on univariate analysis were then included in a multivariate analysis. Statistical significance was accepted at p<0.05. […] Constipation was strongly associated with dopaminergic treatment. On the other hand, only 28/63 (44.4%) patients treated with beta-blockers reported constipation (Table 2).

[2] = tested on: Parkinson's disease patient; experiment: Case report of one Parkinson's disease patient; assay type: in vivo, human
Method: Low-dose beta-blocker therapy (carvedilol 6.25 mg BID) was started to treat anxiety avoiding the sedative effect of benzodiazepine.

[3] = tested on: rectum, mid colon and distal colon; conditions: wild type rats, cited from earlier work
[4] = in vivo; cited from earlier work
[5] = current (oral) formulations; cited from earlier work
[6] = tested on: Parkinson's disease; conditions: in vivo; cited from earlier work

NC12CC3CC(CC(C3)C1)C2 [Amantadine]
OR of constipation, univariate logistic regression [1]: 1.528

N[C@@H](Cc1ccc(O)c(O)c1)C(=O)O [Levodopa, levodopa]
Constipation, % of patients ([1]; Betablockers): 60.0% | No Constipation, % of patients ([1]; Betablockers): 40.0% | Constipation, % of patients ([1]; No Betablockers): 71.7% | No Constipation, % of patients ([1]; No Betablockers): 28.3% | OR of constipation, multivariate logistic regression ([1]; multivariate incl. age, gender, PD duration, levodopa, dopamine-agonists, beta-blockers): 2.077 | OR of constipation, univariate logistic regression [1]: 2.659 | motor symptoms ([2]; Sinemet 25/100 TID added to pramipexole): almost complete resolution of motor symptoms

CN1[C@@H]2CC[C@H]1C[C@@H](OC(=O)C(CO)c1ccccc1)C2 (some centres unmarked) [atropine]
contractions induced by vagus nerve and pelvic nerve stimulation [3]: abolished

CC(C)NCC(O)COc1ccc(CCOCC2CC2)cc1 (centres unmarked) [betaxolol]
passage of the blood-brain barrier [4]: pass the blood-brain barrier

CC(C)NCC(O)COc1ccc(COCCOC(C)C)cc1 (centres unmarked) [bisopropolol]
passage of the blood-brain barrier [4]: pass the blood-brain barrier

Cc1cc2c(OCC(CNC(C)(C)C)OC(=O)c3ccccc3)cccc2[nH]1 (centres unmarked) [bopindolol]
passage of the blood-brain barrier [4]: pass the blood-brain barrier

COc1ccccc1OCCNCC(O)COc1cccc2[nH]c3ccccc3c12 (centres unmarked) [carvedilol]
passage of the blood-brain barrier [4]: pass the blood-brain barrier | absorption [5]: rapid and complete | average elimination half-life [5]: about 8 hours | anxiety, constipation and sleep ([2]; 6.25 mg BID): improved dramatically | GI symptoms (abdominal bloating and constipation) ([2]; restarted at the same dose after self-discontinuation): virtually immediate resolution

CCC1(c2c[nH]cn2)Cc2ccc(F)cc2C1 (centres unmarked) [fipemazole]
levodopa-induced dyskinesias [6]: could also be diminished

c1ccc2c(c1)OCC(C1=NCCN1)O2 (centres unmarked) [idaxozan]
levodopa-induced dyskinesias [6]: could also be diminished

CC(C)(C)NCC(O)COc1cccc2c1CC(O)C(O)C2 (centres unmarked) [nadolol]
resting, postural, and action tremor in Parkinson's disease [6]: can be diminished

C=CCOc1ccccc1OCC(O)CNC(C)C (centres unmarked) [oxprenolol]
passage of the blood-brain barrier [4]: pass the blood-brain barrier

CCCN[C@H]1CCc2nc(N)sc2C1 [pramipexole]
tolerability ([2]; doses up to 1.5 mg TID): tolerated well

CC(C)NCC(O)COc1cccc2ccccc12 (centres unmarked) [propranolol]
passage of the blood-brain barrier [4]: pass the blood-brain barrier | levodopa-induced dyskinesias [6]: could reduce levodopa-induced dyskinesias without worsening Parkinsonism | relaxations induced by hypogastric nerve stimulation ([3]; rectum, mid colon, distal colon): abolished

CC(C)(C)NC[C@H](O)COc1nsnc1N1CCOCC1 [timolol]
passage of the blood-brain barrier [4]: pass the blood-brain barrier

Reference: US10632124B2, “Adrenoceptors antagonists for the prevention and treatment of neurodegenerative conditions” (Cedars-Sinai Medical Center, priority 2013, dated 2020)
